From patent US5952204A, “β-fructofuranosidase, its preparation and uses” (priority 1995, dated 1999)

What was measured:
β-fructofuranosidase [1] = assay: Substrate specificity (TLC); type: biochemical, Bacillus sp. V230 (FERM BP-5054); conditions: 2 w/v % substrate, 2 units/g substrate, 40° C., pH 5.5, 24 hours
Description: A solution with a final concentration of 2 w/v % raffinose, erlose, stachyose, lactose, xylofructoside, maltose, cellobiose, lactose, inulin or laevan as a substrate was mixed with 2 units/g substrate of a β-fructofuranosidase obtained by the method in Experiment 2, and allowed to react enzymatically at 40° C. and pH 5.5 for 24 hours. The reaction mixture was subjected to thin layer chromatography (hereinafter abbreviated as "TLC") using "KIESEL GEL 60", an aluminum plate, 20×20 cm, commercialized by Merck & Co., Inc., NJ, USA, to confirm whether the enzyme acts on these saccharides. The solvent system used in the TLC consisted of 1-butanol, pyridine, and water (=7:3:1 by volume), and samples were developed once at ambient temperature. The saccharides comprising fructose units as constituent saccharides were colored by spraying a 0.5-N phosphoric acid solution containing 0.2 w/v % naphthoresorcinol and heating at 110° C. for about 5 min, while other saccharides were colored by spraying a methanol solution containing 20 w/v % sulfuric acid and heating at 110° C. for about 10 min.

β-fructofuranosidase [2] = assay: Acceptor specificity (TLC, sucrose as donor); type: biochemical, Bacillus sp. V230 (FERM BP-5054); conditions: summary of Table 1
Description: A saccharide solution with a final concentration of 10%, which consists of one of the monosaccharides, oligosaccharides, and alcohols in Table 1, and an equal amount of sucrose as a donor, d.s.b., was mixed with 2 units/g sucrose of a purified β-fructofuranosidase obtained by the method in Experiment 2, and allowed to react enzymatically at 40° C. and pH 5.5 for 24 hours. The mixtures before the enzymatic reaction and the reaction mixtures after the enzymatic reaction were subjected to TLC similarly as in Experiment 4, and the saccharides were colored by spraying 0.5-N phosphoric acid containing 0.2 w/v % naphthoresorcinol and heating at 110° C. for about 5 min to check the formation of transferred saccharides.

β-fructofuranosidase [3] = assay: Inhibition of the enzyme activity by metal ions; type: biochemical, Bacillus sp. V230 (FERM BP-5054); conditions: one mM metal ion
Description: The activity of β-fructofuranosidase according to the present invention is assayed as follows: Add 0.2 ml of an enzyme solution to 5 ml of an aqueous solution (pH 6.0) consisting of 1.0 w/v % sucrose, 20 mM acetate buffer, and 5 mM calcium chloride. Incubate the mixture at 40° C. for 10 min, add the Somogyi copper solution to suspend the reaction, and assay the reducing power by the Somogyi-Nelson's method. As a control, provide an enzyme solution pre-heated to inactivate the enzyme at 100° C. for 10 min, and assay the reducing power similarly as above. One unit activity of the enzyme is defined as the amount of enzyme that increases the reducing power of 2 μmol glucose per minute when assayed on the above assay.
In accordance with the method used in the above assay for the enzyme activity, the influence of pH and temperature on the present β-fructofuranosidase activity was studied in the presence of or in the absence of 5 mM calcium chloride. […] The optimum pH of the enzyme was about 5.5-6.0 when incubated at 40° C. for 10 min both in the presence of and in the absence of calcium ion, while the optimum temperature of the enzyme was about 50° C. in the presence of calcium ion and about 45° C. in the absence of calcium ion when incubated at pH 6.0 for 10 min. The pH stability of the present enzyme was determined by incubating in 50 mM buffers with different pHs at 4° C. for 24 hours, and assaying the residual enzyme activity after adjusting the buffers to pH 6. The thermal stability of the enzyme was determined by incubating in 20 mM acetate buffers (pH 6.0) at different temperatures for an hour, and assaying the residual enzyme activity in each buffer after cooling the buffers. The results of pH and thermal stabilities of the present enzyme were respectively in FIGS. 3 and 4. The pH stability of the enzyme was about 5.0-8.0, and the thermal stability was about 45° C. […] One mM Cu^++, Pb^++, Fe^++, Fe^+++ or Hg^++ inhibited the enzyme activity.

dd-strain mice = assay: Acute toxicity test, oral; type: in vivo; conditions: 7-week-old dd-strain mice
Description: Using 7-week-old dd-strain mice, a powder rich in lactosucrose, obtained by the method in Example A-4 described later, was administered orally to the mice for acute toxicity test. No mouse died up to a dose of 15 g/kg mouse, and a higher dose test was impossible. […] Similarly as above, a powder rich in erlose obtained by the method in Example A-6 described later, a syrup rich in xylosylfructoside obtained by the method in Example A-8 described later, a syrup rich in fructosyltrehalose obtained by the method in Example A-11, or a syrup rich in isomaltosylfructoside obtained by the method in Example A-12 described later was orally administered to 7-week-old dd-strain mice for acute toxicity test. No mouse died up to a dose of 15 g/kg mouse, and a higher does test was impossible.

| Compound | Action of the enzyme on the substrate (release of fructose) (β-fructofuranosidase [1]) | Transfer of fructosyl residue to the acceptor (in words) (β-fructofuranosidase [2]) | further results |
| --- | --- | --- | --- |
| OC[C@H]1O[C@@H](O[C@H]2[C@H](O)[C@@H](O)C(O)O[C@@H]2CO)[C@H](O)[C@@H](O)[C@@H]1O (some centres unmarked) [Cellobiose] | does not act on | effectively transfers | – |
| OC[C@H]1O[C@@](CO)(O[C@H]2OC[C@@H](O)[C@H](O)[C@H]2O)[C@@H](O)[C@@H]1O [xylofructoside] | acts on | – | – |
| [Fe+2] [Fe^++] | – | – | Inhibition of the enzyme activity (β-fructofuranosidase [3]): inhibited |
| OCC(O)CO [Glycerol] | – | effectively transfers | – |
| OC[C@H]1O[C@@](CO)(O[C@H]2O[C@H](CO)[C@@H](O)[C@H](O)[C@H]2O)[C@@H](O)[C@@H]1O [sucrose] | acts on | – | – |
| OC[C@@H](O)[C@@H](O[C@H]1O[C@H](CO)[C@@H](O)[C@H](O)[C@H]1O)[C@H](O)[C@@H](O)CO [Maltitol] | – | effectively transfers | – |
| O=C[C@H](O)[C@@H](O)[C@H](O)CO [D-Xylose] | – | effectively transfers | – |
| inulin | does not act on | – | – |
| OC[C@H]1O[C@@H](O[C@H]2[C@H](O)[C@@H](O)[C@@H](O[C@]3(CO)O[C@H](CO)[C@@H](O)[C@@H]3O)O[C@@H]2CO)[C@H](O)[C@@H](O)[C@H]1O [lactosucrose] | acts on | – | Toxicity (in words) (dd-strain mice): relatively low in toxicity |
| OC[C@@H](O)[C@H](O)[C@@H](O)CO [D-Xylitol] | – | effectively transfers | – |
| OC[C@H]1O[C@H](O[C@H]2[C@H](O)[C@@H](O)[C@H](O)O[C@@H]2CO)[C@H](O)[C@@H](O)[C@@H]1O [Maltose] | does not act on | effectively transfers | – |
| OC[C@@H](O)[C@@H](O)[C@H](O)[C@@H](O)CO [D-Sorbitol] | – | effectively transfers | – |
| OC[C@H]1O[C@H](OC[C@H]2O[C@H](OC[C@H]3O[C@H](O[C@]4(CO)O[C@H](CO)[C@@H](O)[C@@H]4O)[C@H](O)[C@@H](O)[C@@H]3O)[C@H](O)[C@@H](O)[C@H]2O)[C@H](O)[C@@H](O)[C@H]1O [stachyose] | acts on | – | – |
| OC[C@H]1O[C@H](OC[C@H]2O[C@H](O[C@H]3[C@H](O)[C@@H](O)C(O)O[C@@H]3CO)[C@H](O)[C@@H](O)[C@@H]2O)[C@H](O)[C@@H](O)[C@@H]1O (some centres unmarked) [Panose] | – | effectively transfers | – |
| OC[C@H]1O[C@@](CO)(O[C@H]2O[C@H](CO)[C@@H](O[C@H]3O[C@H](CO)[C@@H](O)[C@H](O)[C@H]3O)[C@H](O)[C@H]2O)[C@@H](O)[C@@H]1O [erlose] | acts on | – | – |
| OCCO [Ethylene glycol] | – | effectively transfers | – |
| OC[C@H]1O[C@H](O[C@H]2O[C@H](CO)[C@@H](O)[C@H](O)[C@H]2O)[C@H](O)[C@@H](O)[C@@H]1O [Trehalose] | – | effectively transfers | – |
| laevan | does not act on | – | – |
| OC[C@H]1O[C@H](OC[C@H]2OC(O)[C@H](O)[C@@H](O)[C@@H]2O)[C@H](O)[C@@H](O)[C@@H]1O (some centres unmarked) [Isomaltose] | – | effectively transfers | – |
| O=C[C@H](O)[C@@H](O)[C@@H](O)[C@H](O)CO [D-Galactose] | – | effectively transfers | – |
| [Cu+2] [Cu^++] | – | – | Inhibition of the enzyme activity (β-fructofuranosidase [3]): inhibited |
| OC[C@H]1O[C@H](O[C@H]2[C@H](O)[C@@H](O)[C@@H](O[C@H]3[C@H](O)[C@@H](O)C(O)O[C@@H]3CO)O[C@@H]2CO)[C@H](O)[C@@H](O)[C@@H]1O (some centres unmarked) [Maltotriose] | – | effectively transfers | – |
| [Hg+2] [Hg^++] | – | – | Inhibition of the enzyme activity (β-fructofuranosidase [3]): inhibited |
| OC[C@H]1O[C@H](OC[C@H]2O[C@H](O[C@]3(CO)O[C@H](CO)[C@@H](O)[C@@H]3O)[C@H](O)[C@@H](O)[C@@H]2O)[C@H](O)[C@@H](O)[C@H]1O [Raffinose] | acts on | – | – |
| OC[C@H]1O[C@H](OC[C@H]2OC(O)[C@H](O)[C@@H](O)[C@@H]2O)[C@H](O)[C@@H](O)[C@H]1O (some centres unmarked) [Melibiose] | – | effectively transfers | – |
| [Fe+3] [Fe^+++] | – | – | Inhibition of the enzyme activity (β-fructofuranosidase [3]): inhibited |
| [Pb+2] [Pb^++] | – | – | Inhibition of the enzyme activity (β-fructofuranosidase [3]): inhibited |
| OC[C@H]1O[C@@H](O[C@H]2[C@H](O)[C@@H](O)C(O)O[C@@H]2CO)[C@H](O)[C@@H](O)[C@H]1O (some centres unmarked) [Lactose] | does not act on | effectively transfers | – |
